Legend:
[1] = Tests of bioavailability / transmural intestinal absorption; type: in vivo; settings: quercetin alone; transmural intestinal absorption relatively low
[2] = test system: non-bacterial prostatitis; experiment: Example II: double blind study, 30 patients without positive bacterial cultures localized to the prostatic fluid; type: in vivo, human
Experimental: A double blind study using 30 patients without positive bacterial cultures localized to the prostatic fluid were enrolled in a double blind study. Seventeen of the patients received a composition comprised of quercetin in amount of 500 milligrams, bromelain in an amount of 10 milligrams, and papain in an amount of 10 milligrams as the active ingredients thereof. After a randomized study was completed, an additional fifteen patients were treated in an open label study with […]. […] The mean symptom score improved from 21.0 to 13.1 in the group receiving quercetin, but from 20.2 to 18.8 in the placebo group. This represented an improvement of 35%. In those patients which received only the quercetin, without the papain and bromelain, with obtainable extra prostatic secretions, the white blood cell count in the prostatic fluid decreased from 16.8 to 5.3, versus a decrease from 13.1 to 8.3 in the placebo patients.

In the case of `O=c1c(O)c(-c2ccc(O)c(O)c2)oc2cc(O)cc(O)c12` [quercetin], the bioavailability [1] is reported as “does not have a high bioavailability”, the “mean symptom score, after treatment” value ([2]; end of study) is reported as 13.1 and the “improvement of mean symptom score” value ([2]; human, in vivo) is reported as 35%. For the same molecule, the “white blood cell count in the prostatic fluid, after treatment” value ([2]; patients with obtainable prostatic secretions, end of study) was 5.3, the “white blood cell count in the prostatic fluid, before treatment” value ([2]; patients with obtainable prostatic secretions, starting value) was 16.8 and the “mean symptom score, before treatment” value ([2]; starting value of the group) was 21.0.

— US20010025059A1, “Composition and method for treating non-bacterial prostatitis” (priority 2000, published 2001)
